Measured values taken from patent US6083496A, “Polyamine transport inhibitors” (priority 1996, dated 2000).

Assays:
[1] = test system: polyamine transporter; assay: Spermidine uptake ([3H]spermidine) in CHO-K1 cells; type: cell-based, Chinese hamster; settings: MESC thioether derivatives, FIG. 5
[2] = test system: polyamine transporter; assay: Putrescine uptake ([3H]putrescine) in ZR-75-1 cells; type: cell-based, human; settings: DESC up to 100 μM, MESC up to 200 μM
Experimental: (§1) J. Biol. […] Endocrinology 126: 3223-3231). […] Cell cultures were then washed twice with 1 ml PBS containing 5.7 mM sym-norspermidine. Cells were then lysed with 200-μl aliquot of 1 N NaOH and incubated for 30 minutes at 60° C. After neutralization with 200 μl of 1 N HCl, radioactivity was determined from a 250-μl of the cell lysate by scintillation counting. Uptake activity was expressed per amount of total cellular protein as determined by the method of Bradford (Bradford, M. M. 1976. Anal. Biochem. 72: 248-254). Non-specific binding of radioactive substrate was similarly determined in parallel for both cell lines after a 15 second-incubation with 400 μl of ice-cold uptake solution. […] Km, Ki and Vmax values were then estimated by Line-weaver-Burke analysis. For competitive inhibitors, Ki values were also estimated by measuring uptake activity in the presence of logarithmically increasing concentrations of antagonist, and using the Cheng-Prusoff equation (Cheng. Y. -C. and Prusoff, W. H. 1973. Biochem. Pharmacol. 22: 3099-3108) by iterative curve fitting for a sigmoidal curve. For mixed competitive/noncompetitive inhibition, two methods were used to calculate kinetic constants. […] C. 1976. Enzymes, 3rd Ed., Academic Press, San Diego, Calif.). […] C. 1976. Enzymes, 3rd Ed., Academic Press, San Diego, Calif.).

[3] = test system: ZR-75-1 cells; assay: Effect of inhibitors on cell proliferation (11 days, DNA content); type: cell-based, human
Experimental: Effect of Inhibitors on Cell Proliferation--For growth studies, ZR-75-1 cells were cultured in MEZR medium or in phenol red-free RPMI 1640 supplemented with 2 mM L-glutamine, 1 mM sodium pyruvate, 15 mM Hepes, antibiotics, 1 nM 17β-estradiol, 0.5 μg of bovine insulin per ml and 5% (v/v) charcoal-treated fetal bovine serum (SD medium), as indicated in the text. […] M. L. 1989. in The Physiology of Polyamines (Bachrach, U., and Helmer, Y. M. eds) Vol. I, pp. 203-229, CRC Press, Boca Raton). […] Endocrinology 126: 3223-3231). Medium was changed every other day in these experiments because of the slow reaction of the compound with an unknown component present in the IMEM and RPMI 1640 medium formulation.

[4] = Stability in buffered aqueous solution; type: physicochemical; settings: buffered at pH=7.0
[5] = test system: ZR-75-1 cells; assay: Reversal of DFMO-induced growth inhibition by exogenous spermidine; type: cell-based, human
Experimental: Effect of Inhibitors on Cell Proliferation--For growth studies, ZR-75-1 cells were cultured in MEZR medium or in phenol red-free RPMI 1640 supplemented with 2 mM L-glutamine, 1 mM sodium pyruvate, 15 mM Hepes, antibiotics, 1 nM 17β-estradiol, 0.5 μg of bovine insulin per ml and 5% (v/v) charcoal-treated fetal bovine serum (SD medium), as indicated in the text. When polyamines or polyamine analogs were added to serum-containing media, 1 mM aminoguanidine was added to inhibit bovine serum amine oxidase (BSAO) activity (Morgan, D. M. L. 1989. in The Physiology of Polyamines (Bachrach, U., and Helmer, Y. M. eds) Vol. I, pp. 203-229, CRC Press, Boca Raton). The effect of the transport inhibitors on cell growth was measured by incubating ZR-75-1 cells for 11 days in medium supplemental with antagonist, polyamines and/or 1 mM DFMO as indicated, followed by colorimetric determination of DNA content with 3,5-diaminobenzaic acid (Simard, J., Dauvois, S., Haagensen, D. E., Levesque, C., Merand, Y. and Labrie, F. 1990. Endocrinology 126: 3223-3231). Medium was changed every other day in these experiments because of the slow reaction of the compound with an unknown component present in the IMEM and RPMI 1640 medium formulation.

[6] = test system: polyamine transporter; settings: ZR-75-1 cells; compound as its own substrate; read-out: Km, putrescine transport; cited from earlier work
[7] = test system: ZR-75-1 cells; assay: Intracellular accumulation of DESC and MESC and polyamine contents (HPLC); type: cell-based, human
Experimental: Polyamine Analysis--ZR-75-1 cells were plated in 100 mm culture dishes at 5×10^5 cells/dish in MEZR medium and grown for 5 days with medium changes every other day. Fresh MEZR medium containing the indicated concentration of transport antagonist was then added, plus or minus 200 μM cycloheximide (CHX), and cells were incubated for 1 or 6 hours. […] Cell pellets were resuspended in 300 μl of 10% (v/v) trichloroacetic acid or Tris-DTT buffer (50 mM Tris/HCl, 0.1 mM EDTA, 5 mM DTT, pH 7.5) and stored at -20° C. until further analysis. For chromatographic analysis, samples were first quickly thawed and incubated for 15 minutes at 37° C. Trichloroacetic acid was then added to DTT-containing samples to a final concentration of 10% (wt/v). Samples were dispersed for 2 minutes in a sonicating water bath, and pelleted in a microcentrifuge for 5 minutes. The trichloroacetic acid-insoluble pellet was solubilized in 300-500 μl of 1 N NaOH and used to determine protein content using bovine serum albumin (fraction V) as standard.
Since DESC was eluted as a late, broad peak in the HPLC system used, DTT was added to cell extracts to reduce DESC to MESC and decrease the detection threshold. ZR-75-1 cells were incubated for 1 or 6 hours in MEZR medium in the presence of 50 or 200 μM DESC or MESC prior to determination of polyamine contents. CHX was added at 200 μM where indicated. Other details are provided under "Materials and Methods". Values are the mean±SD of triplicate determinations from 2 independent experiments.

[8] = secondary amino group of the spermine head; cited from earlier work
[9] = test system: polyamine transporter; assay: Spermine uptake ([14C]spermine) in ZR-75-1 cells; type: cell-based, human
Experimental: as §1

[10] = test system: ZR-75-1 cells; assay: Time course of intracellular [3H]spermidine accumulation with transport antagonists; type: cell-based; settings: Homo sapiens
Experimental: The time course of intracellular accumulation of spermidine in the presence of transport antagonists was determined by incubating ZR-75-1 cells in 24-well plates with DESC (50 or 200 μM) or MESC (200 μM) in dissolved in MEZR medium containing 5 μM [^3 H]spermidine in the presence or absence of cycloheximide (CHX, 200 μM), and harvesting at the indicated times for the determination of intracellular radioactive contents, as described above for polyamine uptake assays.

[11] = DESC stability in biological media (HPLC, cell-free); type: physicochemical; settings: imem medium, 37° C., 5% CO2, cell-free, read-out: Fraction of compound decomposed
Experimental: DESC stability--DESC stability was tested by incubating the compound dissolved (at 50 μM) in PBS or in IMEM medium containing 10% (v/v) fetal bovine serum plus or minus 1 mM aminoguanidine in a humid 5% CO2 atmosphere at 37° C. and in the absence of cells. At indicated times, trichloroacetic acid was added to aliquots of this solution to a final concentration 10% (w/v) and the samples directly analyzed by HPLC as above.

[12] = 200 μM compound + 200 μM CHX, 1 h
[13] = 200 μM compound + 200 μM CHX, 6 h

Structure (SMILES): [N-]=[N+]=Nc1ccc(C(=O)NCCCCNC(=O)CSCCNC(=O)C(CCCNCCCN)NCCCN)c(O)c1 (centres unmarked) [MESC-ASIB]
- Ki toward spermidine uptake compared with MESC [1]: did not signicantly (P>0.10) increase the Ki

Structure (SMILES): NCCCNCCCC(NCCCN)C(=O)NCCSSCCN (centres unmarked) [DEASC, N-[2,2'-Dithio(Ethyl, 1'-Aminoethyl)]spermine-5-carboxamide]
- Mode of inhibition of [3H]putrescine uptake [2]: mixed competitive/non-competitive
- Influence of 1 mM aminoguanidine on the growth effect of the compound [3]: completely prevented by the amine oxidase inhibitor
- inhibition at 50 µM ([3]; Homo sapiens, ZR-75-1, 264 h, 50 μM, 11 days): 20%
- Stability in aqueous solution [4]: stable for months

Structure (SMILES): NCCC[C@](N)(C(=O)O)C(F)F [DFMO, α-difluoromethylornithine]
- inhibition at 1000 µM ([5]; Homo sapiens, ZR-75-1, 264 h, 1 mM, 11-day incubation): ~50%

Structure (SMILES): N=C(N)NN [aminoguanidine, reference compound]
- Effect on cell growth, compound alone ([3]; 1 mM, 11 days): slight inhibitory effect

Structure (SMILES): NCCCNCCCC(NCCCN)C(=O)NCCSCC(=O)NCCN1C(=O)c2cc(S(=O)(=O)O)cc3c(N)c(S(=O)(=O)O)cc(c23)C1=O (centres unmarked) [MESC-LY]
- Ki toward spermidine uptake compared with MESC [1]: did not signicantly (P>0.10) increase the Ki

Structure (SMILES): NCCCNCCCC(NCCCN)C(=O)NCCSCC(N)=O (centres unmarked) [MESC-acetamide]
- Ki toward spermidine uptake compared with MESC [1]: did not signicantly (P>0.10) increase the Ki

Structure (SMILES): NCCCCN [Putrescine, 1,4-butane-diamine]
- Km [6]: 3.7 ± 0.4 µM

Structure (SMILES): NCCCNCCCC(NCCCN)C(=O)NCCS (centres unmarked) [MESC, N-(2-mercaptoethyl)spermine-5-carboxamide]
- DESC intracellular content ([7]; 50 μM compound, 1 h): < 0.01 nmol/mg protein
- MESC intracellular content ([7]; 50 μM compound, 1 h): < 0.01 nmol/mg protein
- Spermidine intracellular content ([7]; 50 μM compound, 1 h): 0.95 ± 0.11 nmol/mg protein
- DESC intracellular content ([7]; 50 μM compound, 6 h): < 0.01 nmol/mg protein
- MESC intracellular content ([7]; 50 μM compound, 6 h): < 0.01 nmol/mg protein
- Spermidine intracellular content ([7]; 50 μM compound, 6 h): 0.75 ± 0.11 nmol/mg protein
- DESC intracellular content ([7]; 200 μM compound, 1 h): < 0.01 nmol/mg protein
- MESC intracellular content ([7]; 200 μM compound, 1 h): 0.020 nmol/mg protein
- Spermidine intracellular content ([7]; 200 μM compound, 1 h): 1.15 ± 0.07 nmol/mg protein
- DESC intracellular content ([7]; 200 μM compound, 6 h): < 0.01 nmol/mg protein
- MESC intracellular content ([7]; 200 μM compound, 6 h): 0.13 nmol/mg protein
- Spermidine intracellular content ([7]; 200 μM compound, 6 h): 0.81 ± 0.15 nmol/mg protein
- Influence of 1 mM aminoguanidine on the growth effect of the compound [3]: not blocked by aminoguanidine
- inhibition at 200 µM ([3]; Homo sapiens, ZR-75-1, 264 h, 200 μM, 11 days, read-out: Decrease in cell growth): 35%
- pKa [8]: ≈ 5.5

Structure (SMILES): NCCCNCCCC(NCCCN)C(=O)NCCSSCCNC(=O)C(CCCNCCCN)NCCCN (centres unmarked) [DESC, 2,2'-dithiobis(N-ethyl-spermine-5-carboxamide)]
- Increase in affinity for the polyamine transporter on dimerization of MESC into DESC ([9]; DESC relative to MESC): up to 20 fold
- Ki against [14C]spermine transport, fold lower than that of DEASC ([9]; ZR-75-1 cells, FIG. 2): about 5 fold
- Ki against [14C]spermine transport, fold lower than that of MESC ([9]; ZR-75-1 cells, FIG. 2): ~16 fold
- DESC intracellular content ([7]; 50 μM compound, 1 h): < 0.01 nmol/mg protein
- MESC intracellular content ([7]; 50 μM compound, 1 h): < 0.01 nmol/mg protein
- Spermidine intracellular content ([7]; 50 μM compound, 1 h): 0.81 ± 0.14 nmol/mg protein
- DESC intracellular content ([7]; 50 μM compound, 6 h): < 0.01 nmol/mg protein
- MESC intracellular content ([7]; 50 μM compound, 6 h): < 0.01 nmol/mg protein
- Spermidine intracellular content ([7]; 50 μM compound, 6 h): 0.73 ± 0.11 nmol/mg protein
- Spermine intracellular content ([7]; 50 μM compound, 6 h): 8.60 ± 0.29 nmol/mg protein
- Effect of CHX on internalization of the compound ([7]; 200 μM DESC + 200 μM CHX): did not enhance DESC internalization
- DESC intracellular content [7, 12]: < 0.01 nmol/mg protein
- MESC intracellular content [7, 12]: < 0.01 nmol/mg protein
- Spermidine intracellular content [7, 12]: 0.76 ± 0.04 nmol/mg protein
- MESC intracellular content [7, 13]: < 0.01 nmol/mg protein
- Spermidine intracellular content [7, 13]: 0.70 ± 0.03 nmol/mg protein
- DESC intracellular content ([7]; 200 μM compound, 1 h): < 0.01 nmol/mg protein
- MESC intracellular content ([7]; 200 μM compound, 1 h): < 0.01 nmol/mg protein
- Spermidine intracellular content ([7]; 200 μM compound, 1 h): 0.79 ± 0.11 nmol/mg protein
- DESC intracellular content ([7]; 200 μM compound, 6 h): 0.12 ± 0.01 nmol/mg protein
- MESC intracellular content ([7]; 200 μM compound, 6 h): < 0.01 nmol/mg protein
- Spermidine intracellular content ([7]; 200 μM compound, 6 h): 0.76 ± 0.11 nmol/mg protein
- Intracellular level relative to accumulation of substrates (spermidine, sym-norspermidine, spermine) under identical conditions ([7]; 200 μM, 6 h): about 1.5%
- inhibition at 200 µM ([10]; 5 μM [3H]spermidine, 6 hours, no CHX, read-out: Decrease of net spermidine accumulation): 50%
- activity at 200 µM ([10]; read-out: Cellular level of newly internalized spermidine relative to control conditions): 20%
- Prevention of the reversal of DFMO-induced growth inhibition by spermidine ([5]; 50 μM, DESC:spermidine ratio up to 500): unable to prevent the reversal
- degraded at 48 h, 50 µM [11]: 40%
- Stability in aqueous solution [4]: stable for months
